From ChEMBL document CHEMBL4152272, “Synthesis and evaluation of novel triazolyl quinoline derivatives as potential antileishmanial agents” (Eur J Med Chem, 2018)
The source made the active and inactive calls. The calls are words filed in the database; no cut-off is given here.

Key:
[1] = Cytotoxicity against mouse J774A.1 cells after 48 hrs by MTT assay; assay type: cell-based, J774.A1
Leishmania donovani [2] = assay: Antileishmanial activity against Leishmania donovani MHOM/IN/80/Dd8 amastigotes infected in golden hamsters assessed as inhibition of parasite at 50 mg/kg, ip for 5 consecutive days measured on day 28 post last dose by Giemsa staining based assay relative to control; assay type: functional; conditions: MHOM/IN/80/Dd8, ip, 672 h
Leishmania donovani [3] = assay: Antileishmanial activity against Leishmania donovani MHOM/IN/80/Dd8 promastigotes harboring luciferase reporter gene after 72 hrs by luminescence assay; assay type: functional, organism-based; conditions: MHOM/IN/80/Dd8, 72 h
Leishmania donovani [4] = assay: Antileishmanial activity against Leishmania donovani MHOM/IN/80/Dd8 amastigotes infected in golden hamsters assessed as inhibition of parasite at 50 mg/kg, ip for 5 consecutive days measured on day 7 post last dose by Giemsa staining based assay relative to control; assay type: functional; conditions: for inhibition in vivo at 50 mg/kg: MHOM/IN/80/Dd8, ip, 168 h
[5] = Selectivity index, ratio of CC50 for cytotoxicity against mouse J774A.1 cells to IC50 for Leishmania donovani MHOM/IN/80/Dd8 amastigotes harboring luciferase reporter gene infected in mouse J774A.1 cells; assay type: toxicity, cell-based; conditions: read-out: Ratio CC50/IC50
Leishmania donovani [6] = assay: Antileishmanial activity against Leishmania donovani MHOM/IN/80/Dd8 amastigotes harboring luciferase reporter gene infected in mouse J774A.1 cells after 72 hrs by luminescence assay; assay type: functional, organism-based
Leishmania donovani [7] = assay: Antileishmanial activity against Leishmania donovani MHOM/IN/80/Dd8 amastigotes infected in golden hamsters assessed as inhibition of parasite at 20 mg/kg, ip for 5 consecutive days measured on day 7 post last dose by Giemsa staining based assay relative to control; assay type: functional, organism-based
Leishmania donovani [8] = assay: Antileishmanial activity against Leishmania donovani MHOM/IN/80/Dd8 amastigotes infected in golden hamsters assessed as inhibition of parasite at 20 mg/kg, ip for 5 consecutive days measured on day 28 post last dose by Giemsa staining based assay relative to control; assay type: functional, organism-based
[9] = Leishmania donovani, MHOM/IN/80/Dd8, J774.A1, 72 h, read-out: IC50

| Molecule | CC50 at 48 h [1] [µM] | IC50 (Leishmania donovani [3]) [µM] | selectivity ratio [5] | IC50 (Leishmania donovani [6]; [9]) [µM] | IC50 (Leishmania donovani [6]) | other results |
| --- | --- | --- | --- | --- | --- | --- |
| Cc1nc2ccc(Cl)cc2c(-c2ccccc2)c1C(=O)OCc1cn(Cc2ccc([N+](=O)[O-])cc2)nn1 | 75 | 5 | 4.6 | 16 | – | inhibition in vivo at 50 mg/kg (Leishmania donovani [2]): 22.7%; inhibition in vivo at 50 mg/kg (Leishmania donovani [4]): 6.63% |
| Cc1nc2ccccc2c(-c2ccccc2)c1C(=O)OCc1cn(Cc2ccccc2)nn1 | – | 10 | – | – | Not Active | – |
| COc1cccc(Cn2cc(COC(=O)c3c(C)nc4ccccc4c3-c3ccccc3)nn2)c1 | 36 | 16 | 1 | 34 | – | – |
| Cc1nc2ccccc2c(-c2ccccc2)c1C(=O)OCc1cn(-c2ccc(F)cc2)nn1 | – | 22 | – | – | Not Active | – |
| Cc1nc2ccc(Cl)cc2c(-c2ccccc2)c1C(=O)OCc1cn(Cc2ccccc2F)nn1 | – | 24 | – | – | Not Active | – |
| Cc1nc2ccccc2c(-c2ccccc2)c1C(=O)OCc1cn(Cc2ccc(F)cc2)nn1 | – | 6 | – | – | Not Active | – |
| Cc1nc2ccccc2c(-c2ccccc2)c1C(=O)OCc1cn(Cc2ccc([N+](=O)[O-])cc2)nn1 | 42 | 9 | 2.3 | 18 | – | – |
| Cc1nc2ccc(Cl)cc2c(-c2ccccc2)c1C(=O)OCc1cn(Cc2ccc(F)cc2)nn1 | – | 2 | – | – | Not Active | – |
| Cc1ccc(-n2cc(COC(=O)c3c(C)nc4ccc(Cl)cc4c3-c3ccccc3)nn2)cc1 | – | 10 | – | – | Not Active | – |
| Cc1nc2ccc(Cl)cc2c(-c2ccccc2)c1C(=O)OCc1cn(-c2ccc(F)cc2)nn1 | – | 17 | – | – | Not Active | – |
| CCCCCCCCCCCCCCCCOP(=O)([O-])OCC[N+](C)(C)C [MILTEFOSINE] | 56 | 1 | 6.72 | 8 | – | – |
| Cc1ccc(Cn2cc(COC(=O)c3c(C)nc4ccc(Cl)cc4c3-c3ccccc3)nn2)cc1 | – | 34 | – | – | Not Active | – |
| CCc1ccc(-n2cc(COC(=O)c3c(C)nc4ccccc4c3-c3ccccc3)nn2)cc1 | – | 8 | – | – | Not Active | – |
| Cc1ccc(-n2cc(COC(=O)c3c(C)nc4ccc(Cl)cc4c3-c3ccccc3)nn2)cc1F | 34 | 4 | 2.9 | 12 | – | – |
| Cc1ccc(-n2cc(COC(=O)c3c(C)nc4ccccc4c3-c3ccccc3)nn2)cc1 | 39 | 16 | 5.58 | 7 | – | inhibition in vivo at 50 mg/kg (Leishmania donovani [2]): 40.4%; inhibition (Leishmania donovani [4]): inactive |
| Sodium Stibogluconate | – | – | – | – | – | inhibition (Leishmania donovani [7]): 81.3%; inhibition (Leishmania donovani [8]): 85.3% |
| Cc1nc2ccccc2c(-c2ccccc2)c1C(=O)OCc1cn(Cc2ccccc2C#N)nn1 | – | 10 | – | – | Not Active | – |
| Cc1nc2ccccc2c(-c2ccccc2)c1C(=O)OCc1cn(-c2ccc(C(C)C)cc2)nn1 | – | 5 | – | – | Not Active | – |
| CCc1ccc(-n2cc(COC(=O)c3c(C)nc4ccc(Cl)cc4c3-c3ccccc3)nn2)cc1 | 99 | 5 | 7 | 14 | – | inhibition in vivo at 50 mg/kg (Leishmania donovani [2]): 17.3%; inhibition in vivo at 50 mg/kg (Leishmania donovani [4]): 9.76% |
| Cc1nc2ccc(Cl)cc2c(-c2ccccc2)c1C(=O)OCc1cn(-c2ccc(C(C)(C)C)cc2)nn1 | – | 45 | – | – | Not Active | – |
| Cc1nc2ccccc2c(-c2ccccc2)c1C(=O)OCc1cn(-c2ccc(C(C)(C)C)cc2)nn1 | – | 7 | – | – | Not Active | – |
| Cc1ccc(Cn2cc(COC(=O)c3c(C)nc4ccccc4c3-c3ccccc3)nn2)cc1 | 41 | 4 | 1.81 | 22 | – | – |
| Cc1ccc(-n2cc(COC(=O)c3c(C)nc4ccccc4c3-c3ccccc3)nn2)cc1F | 36 | 6 | 2.12 | 17 | – | – |
| Cc1nc2ccc(Cl)cc2c(-c2ccccc2)c1C(=O)OCc1cn(-c2ccc(C(C)C)cc2)nn1 | – | 3 | – | – | Not Active | – |
| COc1cccc(Cn2cc(COC(=O)c3c(C)nc4ccc(Cl)cc4c3-c3ccccc3)nn2)c1 | – | 7 | – | – | Not Active | – |
| Cc1nc2ccc(Cl)cc2c(-c2ccccc2)c1C(=O)OCc1cn(Cc2ccccc2)nn1 | 35 | 25 | 4.5 | 7 | – | inhibition in vivo at 50 mg/kg (Leishmania donovani [2]): 46.9%; inhibition in vivo at 50 mg/kg (Leishmania donovani [4]): 37.8% |
| Cc1nc2ccccc2c(-c2ccccc2)c1C(=O)OCc1cn(Cc2ccccc2F)nn1 | – | 4 | – | – | Not Active | – |
